We go through 3 compounds from patent publication US7732398B2, “Medicinal uses of mu-opioid receptor agonists” (Cornell Research Foundation, Inc., priority 2000, dated 2010).

Data set [1] has as its system [^3H]NE uptake in spinal cord synaptosomes. Briefly: Inhibition of [3H]NE uptake in spinal cord synaptosomes. Type of data set: biochemical, guinea pig. The conditions noted are these: for IC50: spinal cord synaptosomes, 95% confidence interval in brackets.
Procedure: Adult female Hartley strain guinea pigs (440-550 g) were decapitated and the spinal cords taken out. A crude synaptosomal (P2) fraction was prepared as described previously (Lonart and Johnson 1995; Li 2000). Briefly, the tissue was minced and homogenized in 10 ml of ice-cold 0.32 M sucrose solution (pH7.4) with a Thomas B075 homogenizor, clearance 0.13-0.18 mm. The homogenate was centrifuged for 10 min at 1,200×g in a Megafuge centrifuge at 4° C. The resulting supernatant was then centrifuged at 20,000×g for 20 min in JA-17 rotor of a Beckman J2-21 centrifuge at 4° C. and the supernatant discarded. The pellet (P2) was gently resuspended in aerated (100% O2) ice-cold buffer containing (in mM):HEPES 20, NaCl 140, KCl 5, NaHCO3 5, MgCl2 1, Na2HPO4 1.2, CaCl2 1.2 and glucose 10, pH 7.4, and centrifuge at 3,000×g for 12 min in a Megafuge at 4° C. Pour out the supernatant. Gently resuspend synaptosome in 10 ml buffer with the aid of a Dounce homogenizor just before using. Protein concentration was determined by the method of Bradford (1976) at 595 nm using bovine serum albumin as a standard in a Spectra Max plus machine (Molecular Device Co. Sunnyvale, Calif.)
Add buffer 0.6 ml in tubes, synaptosome solution 0.2 ml (about 100 μg), then varying concentration of drug 0.1 ml (each concentration performed in triplicate), put in water bath for pre-incubation for 10 min at 37° C. The uptake was initiated by the addition of [^3H]NE (100 nM) or [^3H]5-HT (50 nM) 0.1 ml, continued to incubate for 6 min and terminated by a rapid cooling of sample tubes in ice-cold water for 3 min. The synaptosome were then collected using a Harvest machine with GF/B filter, washed for 3 times with ice-cold 150 mM Tris HCl buffer (pH7.4) 2 ml. After drying, put filter in scintillation liquid vials then add scintillation liquid 6 ml. Filter-bound radioactivity was counted by liquid scintillation counter (Beckman LS6001). The difference in [^3H]NE or [^3H]5-HT accumulation at 37° C. and 0° C. was taken as a measure of active uptake. […]
Data set [2] deals with 5-HT uptake in spinal cord synaptosomes. Briefly: Inhibition of [3H]5-HT uptake in spinal cord synaptosomes. Format: biochemical, guinea pig. As to conditions: data not shown. How it is done:
Adult female Hartley strain guinea pigs (440-550 g) were decapitated and the spinal cords taken out. A crude synaptosomal (P2) fraction was prepared as described previously (Lonart and Johnson 1995; Li 2000). Briefly, the tissue was minced and homogenized in 10 ml of ice-cold 0.32 M sucrose solution (pH7.4) with a Thomas B075 homogenizor, clearance 0.13-0.18 mm. The homogenate was centrifuged for 10 min at 1,200×g in a Megafuge centrifuge at 4° C. The resulting supernatant was then centrifuged at 20,000×g for 20 min in JA-17 rotor of a Beckman J2-21 centrifuge at 4° C. and the supernatant discarded. The pellet (P2) was gently resuspended in aerated (100% O2) ice-cold buffer containing (in mM):HEPES 20, NaCl 140, KCl 5, NaHCO3 5, MgCl2 1, Na2HPO4 1.2, CaCl2 1.2 and glucose 10, pH 7.4, and centrifuge at 3,000×g for 12 min in a Megafuge at 4° C. Pour out the supernatant. […] Protein concentration was determined by the method of Bradford (1976) at 595 nm using bovine serum albumin as a standard in a Spectra Max plus machine (Molecular Device Co. Sunnyvale, Calif.)
Add buffer 0.6 ml in tubes, synaptosome solution 0.2 ml (about 100 μg), then varying concentration of drug 0.1 ml (each concentration performed in triplicate), put in water bath for pre-incubation for 10 min at 37° C. […] Filter-bound radioactivity was counted by liquid scintillation counter (Beckman LS6001). […]

In another data set the test system is awake sheep. Briefly: Blood pressure in sheep after intravenous administration. Format: in vivo. An excerpt:
Even a brief period of increased blood pressure may be a risk factor in patients with hypertension, compromised myocardial function (such as after a myocardial infarction) or patients who are at risk for strokes. The response is short-lasting because the receptor desensitizes rapidly. We can take advantage of this rapid desensitization and eliminate the blood pressure response by administering the drug as a slow intravenous infusion rather than as a rapid bolus injection.
[…] […] Thus the increase in blood pressure can be avoided by using a slow intravenous infusion of [Dmt^1]DALDA.

A further data set deals with rats (F344 strain). Briefly: Myocardial stunning during myocardial ischemia and reperfusion in rats. Format: in vivo, rat. How it is done:
In the [Dmt^1]DALDA group, [Dmt^1]DALDA was administered as a 10 nmol bolus, followed by 10 nmol/h continuous infusion. […] The control group received the same volume of saline as a bolus and continuous infusion.
The left anterior descending artery was occluded by applying tension to the sling through a polyethylene 10 tubing and clamping. Successful occlusion was confirmed by typical electrocardiographic changes and wall motion abnormality on echocardiogram. After 10 min of myocardial ischemia, the sling was released to reperfuse the left anterior descending artery. Time to recovery of left ventricular function was defined as the duration from the reperfusion to recovery of fractional shortening above 90% of baseline. Duration of reperfusion arrhythmia was defined as the duration of time to the last three consecutive premature ventricular contractions (salvo) after reperfusion. All procedures were performed in a blinded manner, with the groups assigned letters and their identities unknown to the operators. Likewise, the two independent investigators analyzing the data were blind to the treatment assignments.
All procedures and care of animals were in accordance with guidelines approved by the Institution for the Care and Use of Animals at Weill Medical College of Cornell University. Following anesthesia with 0.2 mg of ketamine and 1 mg xylazine given intraperitoneally, tracheostomy with blunt dissection of the neck and intubation with polyethylene tubing 240 was performed. Mechanical ventilation was started with room air at 90 respirations per min. The internal jugular vein was surgically exposed and a polyethylene tubing was inserted for drug administration. Left thoracotomy was performed through fifth intercostal space to expose the heart. After removal of the pericardium, a 6.0 Nylon sling was placed around the proximal left anterior descending artery just below the level of the left atrial appendage, to be used for occlusion of the coronary artery. Continuous echocardiogram was obtained by inserting a 10 French intracardiac probe into the esophagus (Acuson-Sequoia C256) and a two-dimensional echocardiogram was recorded continuously, with 10 MHz echo signals throughout the procedure. Electrocardiographic monitoring from a standard lead II (AC AMP 700) was digitally recorded throughout the procedure.
M-mode recordings were obtained for the analysis of wall motion and left ventricular systolic function. Left ventricular end diastolic and end systolic dimensions were measured at the level of papillary muscle. Fractional shortening as a measure of the global left ventricular function was calculated as the difference between left ventricular end diastolic and end systolic dimensions divided by end diastolic dimension×100. Systolic wall thickening of the anterior wall in percent, as a measure of the ischemic regional wall motion, was calculated as the difference between left ventricular end diastolic and end systolic wall thickness divided by end diastolic wall thickness×100.
Echocardiographic and electrocardiographic data are presented as mean value±SD. ANOVA was used to compare among the groups. A p-value<0.05 was considered significant.

The conditions of data set [3]: known value (Szeto et al., 1998); cited from earlier work.
The mark [4] stands for this setting: Five min. after reperfusion, listed as morphine.

The IC50 is the point on the concentration scale where inhibition reaches its midpoint. For the compound `Cc1cc(O)cc(C)c1C[C@H](N)C(=O)N[C@H](CCCNC(=N)N)C(=O)N[C@@H](Cc1ccccc1)C(=O)N[C@@H](CCCCN)C(N)=O` [[Dmt^1]DALDA, 2′,6′-dimethyl-Tyr-D-Arg-Phe-Lys-NH2], the “inhibition of [3H]NE uptake” value in data set [1] (at a dose of 10^−4) was 80.6±1.5%. Also, in data set [1], the IC50 stood at 4.1 µM. In addition, the “effect on 5-HT uptake” value in data set [2] is “Neither DALDA nor [Dmt^1]DALDA had any effect”. For the same compound, the blood pressure result in the data set on awake sheep (constant rate intravenous infusion 0.06-0.6 mg/kg/h for as long as 4 h) was “no significant change in blood pressure”; with awake sheep (intravenous bolus 0.003-0.009 mg/kg, awake sheep), “transient increase in blood pressure”. The “potency relative to DALDA in increasing blood pressure” value in the data set on awake sheep (sheep, unpublished data) was determined as 100 fold. For the same compound, the figures for the Ejection fraction in the data set on rats (F344 strain) (After ligation), in the data set on rats (F344 strain) (Baseline) and in the data set on rats (F344 strain) (Five min. after reperfusion) were 31.4 ± 5.6%, 64 ± 9.2% and 48.9 ± 10.1%, respectively. For the same compound, the Fractional shortening came to 27.1 ± 4.0% in the data set on rats (F344 strain) (After ligation), 47.8 ± 4.2% in the data set with rats (F344 strain) (Baseline), 45.7±2.4% in the data set with rats (F344 strain) (Five min. after reperfusion) and 44.0±3.8% in the data set with rats (F344 strain) (Ten min. after reperfusion). The Systolic wall thickening in the data set on rats (F344 strain) (After ligation) is reported as 7.6 ± 4.7%; in the data set on rats (F344 strain) (Baseline) it was 47.0 ± 6.1%; with rats (F344 strain) (Five min. after reperfusion) it was 48.3±7.6%; with rats (F344 strain) (Ten min. after reperfusion) it was 50.5±8.4%. Besides, the “effect on contractility during preischemic or postischemic periods” value in the data set with rats (F344 strain) (review of continuous echocardiogram) was “no effects of [Dmt^1]DALDA on the contractility”.
With `CN1CC[C@]23c4c5ccc(O)c4O[C@H]2[C@@H](O)C=C[C@H]3[C@H]1C5` [Morphine, morphine, reference compound], the Ejection fraction amounted to 31.3 ± 4.2% in the data set on rats (F344 strain) (After ligation), 64.6 ± 6.0% in the data set with rats (F344 strain) (Baseline) and 39.5 ± 11.1% with rats (F344 strain) (Five min. after reperfusion). The Fractional shortening with rats (F344 strain) (After ligation) amounted to 21.0 ± 3.9%; in the data set on rats (F344 strain) (Baseline) it was 46.5 ± 3.6%; in the data set with rats (F344 strain) (Five min. after reperfusion), 39.1 ± 6.4%; in the data set with rats (F344 strain) (setting [4]), 39.1±6.4%; in the data set on rats (F344 strain) (Ten min. after reperfusion), 45.3 ± 6.2%. Moreover, the Systolic wall thickening in the data set on rats (F344 strain) (After ligation) was 7.8 ± 6.5%; with rats (F344 strain) (Baseline), 47.7 ± 4.5%; in the data set on rats (F344 strain) (Five min. after reperfusion), 33.7 ± 7.5%; in the data set on rats (F344 strain) (setting [4]), 33.7±7.5%; with rats (F344 strain) (Ten min. after reperfusion), 42.2 ± 5.8%. For the same compound, the “Time to recovery of left ventricular function” value with rats (F344 strain) (from reperfusion to fractional shortening above 90% of baseline, [Dmt1]DALDA 10 nmol + 10 nmol/h, morphine 100 nmol + 100 nmol/h iv) was found to be 6.0 ± 2.5 min. Besides, the “duration of reperfusion arrhythmia” value in the data set on rats (F344 strain) (time to last salvo after reperfusion) turned out to be 5.8 ± 3.9 min.
In data set [1], `NCCCC[C@H](NC(=O)[C@H](Cc1ccccc1)NC(=O)[C@@H](CCCN=C(N)N)NC(=O)[C@@H](N)Cc1ccc(O)cc1)C(N)=O` [DALDA, H-Tyr-D-Arg-Phe-Lys-NH2] registered an IC50 of 54 µM. Moreover, the “effect on 5-HT uptake” value in data set [2] is “Neither DALDA nor [Dmt^1]DALDA had any effect”. Besides, the elimination half-life in data set [3] is roughly 1.5 h.
